Values of other authors as cited in patent US11111202B2, “Production of salts of 4-hydroxybutyrate using biobased raw materials” (CJ Cheiljedang Corporation, priority 2012, dated 2021).

Key:
[1] = after oral administration
[2] = or even longer if large doses have been consumed

For O=C(O)CCCO [GHB, γ-Hydroxybutyric acid], the “time of peak plasma concentration” value [1] is given as 20 to 60 min and the “duration of the effects of GHB” value [2] is given as 1.5 to 3 h.
